Laboratory results reported in US20250163119A1, “COMPOUNDS FOR THE TREATMENT OF DIABETES OR OBESITY” (Eli Lilly and Company, priority 2023, published 2025).
*1 amine or outer side, *2 acyl side, *3 side chain or, on linkers, in order; H or OH if unused. Where a SMILES comes first, the peptide text is derived from it. Side-chain parts run from the residue outwards. [ ]: non-standard residue; d: D form. The star is where a group is joined. C20 diacid = O=C(O)CCCCCCCCCCCCCCCCCCC(=O)*; γGlu = O=C(O)[C@H](CCC(=O)[*:2])N[*:1]; εLys = N[C@@H](CCCCN[*:1])C(=O)[*:2]; αMeL = CC(C)C[C@](C)(N)C(=O)O; Dap = NC[C@H](N)C(=O)O; AEEA = NCCOCCOCC(=O)O; Aib = CC(C)(N)C(=O)O

molecular target: T1, human CRHR2 (Homo sapiens, UniProt Q13324); test: Human CRHR2 cAMP assay (HTRF) in HEK293 cells stably expressing human CRHR2; assay type: cell-based; conditions: HEK293 cells overexpressing human CRHR2; relative EC50, maximum 10 nM human UCN2; mean ± SE; read-out: hCRHR2 cAMP EC50 (pM, ± SE)
T1 construct: expressed in transfected cells
T1 sequence (Q13324 1-438 isoform Q13324-2): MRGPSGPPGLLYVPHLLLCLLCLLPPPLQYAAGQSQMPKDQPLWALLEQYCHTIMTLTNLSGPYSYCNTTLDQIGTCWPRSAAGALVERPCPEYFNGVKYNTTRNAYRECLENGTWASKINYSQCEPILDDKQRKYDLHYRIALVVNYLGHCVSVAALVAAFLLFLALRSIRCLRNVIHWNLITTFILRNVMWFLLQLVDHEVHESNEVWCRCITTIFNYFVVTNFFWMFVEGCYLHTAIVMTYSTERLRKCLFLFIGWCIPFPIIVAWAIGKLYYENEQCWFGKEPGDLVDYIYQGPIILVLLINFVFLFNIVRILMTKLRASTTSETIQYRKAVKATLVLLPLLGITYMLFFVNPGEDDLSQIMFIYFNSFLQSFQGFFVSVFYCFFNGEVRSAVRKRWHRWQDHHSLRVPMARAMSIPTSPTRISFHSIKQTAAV
Method: The corticotropin-releasing hormone (CRH) receptor 1 and 2 (CRHR1 and CRHR2) are GPCRs that were functionally coupled to Gs proteins. Stimulation of these receptors results in an increased production of intracellular cAMP, which can be detected using standard in vitro technologies. In vitro activity of peptides was measured by the amount of cAMP formed in human CRHR1 and CRHR2 overexpressed cells.
Human CRHR1 and CRHR2 receptors were stably expressed in human embryonic kidney cells (HEK293) under control of a pcDNA expression vector. The HEK293 cell line was cultured in DMEM 1× (Gibco, 93-0152DK) supplemented with 10% FBS, 1 mM sodium pyruvate, 1×MEM NEAA, 1× GlutaMAX and 10 mM HEPES. The plasmids of human CRHR1-pQCXIP (T7364) and human CRHR2b-R2683puro (T16761) DNA were transfected into HEK293 cells using Lipo fectAMINE 3000 Transfection reagent (Invitrogen, L3000001). After 20 days under selection, the mRNA levels from different clones were measured to confirm the expression of human CRHR1 and CRHR2 genes. To determine the function of over-expressed CRHR cells, the intracellular cAMP levels in response to human UCN1 and UCN2 were measured and compared to the expression of CRHR1 and CRHR2 mRNA in each clone.
Human CRHR1 cells were cultured in DMEM 1× (Gibco, 93-0152DK) supplemented with 10% FBS, 1 mM sodium pyruvate, 1×MEM NEAA, 1×GlutaMAX, 10 mM HEPES, and 800 μg/ml G418. Human CRHR2 cells were cultured at the same media (DMEM 1×, 10% FBS, 1 mM sodium pyruvate, 1×MEM NEAA, 1×GlutaMAX, 10 mM HEPES) in the presence of 0.5 ug/mL puromycin. Cultured cells were grown to 90% confluency and harvested. The cells were frozen at 10×10e6/ml in a mixture of […] fetal bovine serum plus 7% DMSO and stored in liquid nitrogen until use.
On the day of the assay, the frozen cells were thawed and diluted in assay buffer (Phenol Red free MEM (Corning, 17-305-CV, lot #32121010), 0.1% Casein (Sigma C4765, lot #SLCG2120), 5 mM HEPES pH 7.4 containing 0.25 mM IBMX). 10 ul of human CRHR1 cells (25,000 cells) or 10 μL of human CRHR2 cells (5,000 cells) were dispensed into each well of white poly-D-lysine coated 384-well plates (Corning cat #354661). Test compounds diluted in DMSO were added (200 nL/well) in a 1:3 dilution series using ECHO acoustic liquid handler (Beckman). The mixture of cells and test compounds were incubated at 37° C. for 1 hour for the hCRHR1 plate, while the CRHR2 plates were incubated at room temperature for 30 min.
The amount of intracellular cAMP was quantitated using HTRF technology (Homogeneous Time Resolved Fluorescence; Cisbio) as per vendor instructions. Briefly, 10 uL CAMP-d2 conjugate and 10 uL anti-CAMP-cryptate conjugate in lysis buffer were incubated with the treated cells at room temperature for 60 min. The HTRF signal was immediately detected using an Envision plate reader (Perkin-Elmer) to calculate the ratio of fluorescence at 665 to 620 nm.
Raw fluorescence data for concentration curves of the peptides in Table 2 and Table 3 were converted to cAMP amount (pmol/well) using a cAMP standard curve generated for each experiment.

EC50	Molecule
5.3 ± 0.9 pM	CC[C@H](C)[C@H](NC(C)=O)C(=O)N[C@H](C(=O)N[C@H](C(=O)N[C@@H](CO)C(=O)N[C@@](C)(CC(C)C)C(=O)N[C@@H](CC(=O)O)C(=O)N[C@@H](C(=O)N1CCC[C@H]1C(=O)N[C@H](C(=O)NCC(=O)N[C@@](C)(CC(C)C)C(=O)N[C@@H](CC(C)C)C(=O)N[C@@H](CCC(N)=O)C(=O)N[C@H](C(=O)N[C@@H](CCCCN)C(=O)N[C@@H](CC(C)C)C(=O)N[C@@H](CCC(=O)O)C(=O)N[C@@H](CCC(N)=O)C(=O)N[C@@H](CCC(=O)O)C(=O)N[C@@H](CCCNC(=N)N)C(=O)N[C@@H](C)C(=O)N[C@@H](CCC(=O)O)C(=O)N[C@@H](CCCCN)C(=O)N[C@@H](C)C(=O)N[C@@H](CCCNC(=N)N)C(=O)N[C@@H](CCC(N)=O)C(=O)N[C@@H](CCC(N)=O)C(=O)N[C@@H](C)C(=O)N[C@@H](CCCCNC(=O)[C@@H](N)CCCCNC(=O)CC[C@H](NC(=O)COCCOCCNC(=O)CCCCCCCCCCCCCCCCCCC(=O)O)C(=O)O)C(=O)N[C@@H](CCC(=O)O)C(=O)N[C@@H](CC(N)=O)C(=O)N[C@H](C(=O)N[C@@H](CCC(=O)O)C(=O)N[C@H](C(=O)N[C@@H](CC(C)C)C(=O)N[C@@H](C)C(=O)N[C@@H](CCC(N)=O)C(=O)N[C@H](C(N)=O)C(C)C)[C@@H](C)CC)[C@@H](C)O)[C@@H](C)CC)[C@@H](C)O)C(C)C)[C@@H](C)O)C(C)C [SEQ ID NO: 35, Ac-IVTS αMeL D (D-Val) PTG αMeL LQIKLEQERAEKARQQAK(ϵK-γE-(2-[2-(2-Amino-ethoxy)-ethoxy]-acetyl)-CO-(CH2)18-CO2H)ENTEILAQV-NH2] (Ac-IVTS[αMeL]D[dV]PTG[αMeL]LQIKLEQERAEKARQQAK([εLys-γGlu-AEEA-C20 diacid])ENTEILAQV-NH2)
4.4 ± 0.4 pM	CC[C@H](C)[C@H](NC(C)=O)C(=O)N[C@H](C(=O)N[C@H](C(=O)N[C@@H](CO)C(=O)N[C@@](C)(CC(C)C)C(=O)N[C@@H](CC(=O)O)C(=O)N[C@@H](C(=O)N1CCC[C@H]1C(=O)N[C@H](C(=O)NCC(=O)N[C@@](C)(CC(C)C)C(=O)N[C@@H](CC(C)C)C(=O)N[C@@H](CCC(N)=O)C(=O)N[C@H](C(=O)N[C@@H](CCCCN)C(=O)N[C@@H](CC(C)C)C(=O)N[C@@H](CCC(=O)O)C(=O)N[C@@H](CCC(N)=O)C(=O)N[C@@H](CCC(=O)O)C(=O)N[C@@H](CCCNC(=N)N)C(=O)N[C@@H](C)C(=O)N[C@@H](CCC(=O)O)C(=O)N[C@@H](CCCCN)C(=O)N[C@@H](C)C(=O)N[C@@H](CCCNC(=N)N)C(=O)N[C@@H](CCC(N)=O)C(=O)N[C@@H](CCC(N)=O)C(=O)N[C@@H](C)C(=O)N[C@@H](CCCCNC(=O)CC[C@H](NC(=O)COCCOCCNC(=O)[C@@H](N)CCCCNC(=O)CCCCCCCCCCCCCCCCCCC(=O)O)C(=O)O)C(=O)N[C@@H](CCC(=O)O)C(=O)N[C@@H](CC(N)=O)C(=O)N[C@H](C(=O)N[C@@H](CCC(=O)O)C(=O)N[C@H](C(=O)N[C@@H](CC(C)C)C(=O)N[C@@H](C)C(=O)N[C@@H](CCC(N)=O)C(=O)N[C@H](C(N)=O)C(C)C)[C@@H](C)CC)[C@@H](C)O)[C@@H](C)CC)[C@@H](C)O)C(C)C)[C@@H](C)O)C(C)C [SEQ ID NO: 36, Ac-IVTS αMeL D (D-Val) PTG αMeL LQIKLEQERAEKARQQAK(γE-(2-[2-(2-Amino-ethoxy)-ethoxy]-acetyl)-ϵK-CO-(CH2)18-CO2H)ENTEILAQV-NH2] (Ac-IVTS[αMeL]D[dV]PTG[αMeL]LQIKLEQERAEKARQQAK([γGlu-AEEA-εLys-C20 diacid])ENTEILAQV-NH2)
5 ± 0.2 pM	CC[C@H](C)[C@H](NC(C)=O)C(=O)N[C@H](C(=O)N[C@H](C(=O)N[C@@H](CO)C(=O)N[C@@](C)(CC(C)C)C(=O)N[C@@H](CC(=O)O)C(=O)N[C@@H](C(=O)N1CCC[C@H]1C(=O)N[C@H](C(=O)NCC(=O)N[C@@](C)(CC(C)C)C(=O)N[C@@H](CC(C)C)C(=O)N[C@@H](CCC(N)=O)C(=O)N[C@H](C(=O)N[C@@H](CCCCN)C(=O)N[C@@H](CC(C)C)C(=O)N[C@@H](CCC(=O)O)C(=O)N[C@@H](CCC(N)=O)C(=O)N[C@@H](CCC(=O)O)C(=O)N[C@@H](CCCNC(=N)N)C(=O)N[C@@H](C)C(=O)N[C@@H](CCC(=O)O)C(=O)N[C@@H](CCCCN)C(=O)N[C@@H](C)C(=O)N[C@@H](CCCNC(=N)N)C(=O)N[C@@H](CCC(N)=O)C(=O)N[C@@H](CCC(N)=O)C(=O)N[C@@H](C)C(=O)N[C@@H](CCCCNC(=O)CC[C@H](NC(=O)[C@@H](N)CCCCNC(=O)COCCOCCNC(=O)CCCCCCCCCCCCCCCCCCC(=O)O)C(=O)O)C(=O)N[C@@H](CCC(=O)O)C(=O)N[C@@H](CC(N)=O)C(=O)N[C@H](C(=O)N[C@@H](CCC(=O)O)C(=O)N[C@H](C(=O)N[C@@H](CC(C)C)C(=O)N[C@@H](C)C(=O)N[C@@H](CCC(N)=O)C(=O)N[C@H](C(N)=O)C(C)C)[C@@H](C)CC)[C@@H](C)O)[C@@H](C)CC)[C@@H](C)O)C(C)C)[C@@H](C)O)C(C)C [SEQ ID NO: 37, Ac-IVTS αMeL D (D-Val) PTG αMeL LQIKLEQERAEKARQQAK(γE-ϵK-(2-[2-(2-Amino-ethoxy)-ethoxy]-acetyl)-CO-(CH2)18-CO2H)ENTEILAQV-NH2] (Ac-IVTS[αMeL]D[dV]PTG[αMeL]LQIKLEQERAEKARQQAK([γGlu-εLys-AEEA-C20 diacid])ENTEILAQV-NH2)
6.6 ± 0.5 pM	{C20 diacid}-[Dap][AEEA][γGlu]GSPSIVTS[αMeL]DVPT[Aib][αMeL]LEKILEQERAEKARQQATEAAEILAQV-NH2 [SEQ ID NO: 52]
